Reference: patent US11066396B2 (priority 2016, dated 2021)
pIC50: −log10 of the molar value.

Key:
[1] = molecular target: HDAC1 (Homo sapiens (Human), UniProt Q13547); conditions: read-out: HDAC1 IC50
[2] = molecular target: HDAC5 (Homo sapiens (Human), UniProt Q9UQL6); conditions: read-out: HDAC5 IC50
[3] = molecular target: HDAC8 (Homo sapiens (Human), UniProt Q9BY41); conditions: read-out: HDAC8 IC50
Chain of HDAC8 (Q9BY41 whole entry): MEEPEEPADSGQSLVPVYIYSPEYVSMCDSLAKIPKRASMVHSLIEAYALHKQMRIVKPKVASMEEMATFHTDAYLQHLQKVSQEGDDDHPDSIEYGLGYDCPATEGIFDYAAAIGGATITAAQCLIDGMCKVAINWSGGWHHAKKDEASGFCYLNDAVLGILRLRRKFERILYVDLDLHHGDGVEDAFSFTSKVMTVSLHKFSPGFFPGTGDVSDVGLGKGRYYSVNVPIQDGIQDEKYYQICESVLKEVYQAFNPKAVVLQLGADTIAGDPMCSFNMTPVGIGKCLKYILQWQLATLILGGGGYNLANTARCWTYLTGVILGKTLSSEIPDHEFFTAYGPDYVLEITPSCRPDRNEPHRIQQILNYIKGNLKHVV

Chain of HDAC1 (Q13547 whole entry): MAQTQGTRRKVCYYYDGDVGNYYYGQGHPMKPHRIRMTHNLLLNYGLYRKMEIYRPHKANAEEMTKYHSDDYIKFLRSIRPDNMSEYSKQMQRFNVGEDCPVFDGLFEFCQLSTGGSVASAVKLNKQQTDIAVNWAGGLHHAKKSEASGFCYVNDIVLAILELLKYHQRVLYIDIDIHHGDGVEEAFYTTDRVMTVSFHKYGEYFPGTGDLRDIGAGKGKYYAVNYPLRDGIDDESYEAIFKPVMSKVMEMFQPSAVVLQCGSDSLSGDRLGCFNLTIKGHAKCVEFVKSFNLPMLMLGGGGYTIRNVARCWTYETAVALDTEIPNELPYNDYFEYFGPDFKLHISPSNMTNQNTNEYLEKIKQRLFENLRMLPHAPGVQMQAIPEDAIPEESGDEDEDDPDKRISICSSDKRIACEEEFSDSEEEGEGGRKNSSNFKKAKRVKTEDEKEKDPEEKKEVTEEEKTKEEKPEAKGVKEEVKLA
Chain of HDAC5 (Q9UQL6 656-1122): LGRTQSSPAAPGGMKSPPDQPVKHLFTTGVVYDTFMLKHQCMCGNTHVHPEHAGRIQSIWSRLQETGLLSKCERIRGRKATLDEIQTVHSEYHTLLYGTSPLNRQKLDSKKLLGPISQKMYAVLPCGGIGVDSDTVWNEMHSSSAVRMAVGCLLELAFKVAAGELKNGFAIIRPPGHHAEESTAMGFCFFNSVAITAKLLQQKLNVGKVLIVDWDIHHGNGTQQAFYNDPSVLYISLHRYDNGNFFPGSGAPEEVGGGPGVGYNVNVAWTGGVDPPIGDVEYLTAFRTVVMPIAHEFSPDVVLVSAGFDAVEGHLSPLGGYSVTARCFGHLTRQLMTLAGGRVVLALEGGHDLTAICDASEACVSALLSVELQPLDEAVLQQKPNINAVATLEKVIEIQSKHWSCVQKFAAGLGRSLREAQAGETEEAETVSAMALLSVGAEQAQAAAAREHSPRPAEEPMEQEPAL

| SMILES | pIC50 [1] | pIC50 [2] | pIC50 [3] |
| --- | --- | --- | --- |
| Cc1cc(C)nc(COc2nccc(-c3noc(C(F)(F)F)n3)c2Cl)n1 [Example 186, 3-(3-Chloro-2-((4,6-dimethylpyrimidin-2-yl)methoxy)pyridin-4-yl)-5-(trifluoromethyl)-1,2,4-oxadiazole] | 5.09 | 6.07 | 5.41 |
| CN(C(=O)[C@@H]1CCC(=O)N1c1ccc(-c2noc(C(F)(F)F)n2)c(F)c1)C(C)(C)C [Example 340, N-tert-butyl-1-{3-fluoro-4-[5-(trifluoromethyl)-1,2,4-oxadiazol-3-yl]phenyl}-N-methyl-5-oxo-L-prolinamide] | 4.51 | 5.74 | 4.57 |
| Cc1noc([C@@H]2CCCCN2c2ccc(-c3noc(C(F)(F)F)n3)cn2)n1 [Example 140, (S)-3-methyl-5-(1-(5-(5-(trifluoromethyl)-1,2,4-oxadiazol-3-yl)pyridin-2-yl)piperidin-2-yl)-1,2,4-oxadiazole] | 6.03 | 6.82 | 6.00 |
| O=C1CCC(c2ccccc2Cl)N1c1ccc(-c2noc(C(F)(F)F)n2)cc1F (stereo not drawn) [Example 117, 5-(2-chlorophenyl)-1-(2-fluoro-4-(5-(trifluoromethyl)-1,2,4-oxadiazol-3-yl)phenyl)pyrrolidin-2-one] | 5.74 | 6.85 | 5.51 |
| O=C1COC[C@@H](c2ccccc2)N1c1cc(F)c(-c2noc(C(F)(F)F)n2)cc1F [Example 160, (R)-4-(2,5-difluoro-4-(5-(trifluoromethyl)-1,2,4-oxadiazol-3-yl)phenyl)-5-phenylmorpholin-3-one] | 5.89 | 8.52 | 4.92 |
| O=C1OC[C@@H](c2ccccc2)N1c1cc(F)c(-c2noc(C(F)(F)F)n2)cc1F [Example 16, (R)-3-(2,5-Difluoro-4-(5-(trifluoromethyl)-1,2,4-oxadiazol-3-yl)phenyl)-4-phenyloxazolidin-2-one] | 6.00 | 7.72 | 5.22 |
| O=C1COc2ccccc2N1Cc1ccc(-c2noc(C(F)(F)F)n2)cn1 [Example 462, 4-({5-[5-(trifluoromethyl)-1,2,4-oxadiazol-3-yl]pyridin-2-yl}methyl)-2H-1,4-benzoxazin-3(4H)-one] | 6.82 | 8.02 | 5.62 |
| CNC(=O)OCc1ccc(-c2noc(C(F)(F)F)n2)cn1 [Example 194, {5-[5-(trifluoromethyl)-1,2,4-oxadiazol-3-yl]pyridin-2-yl}methyl methylcarbamate] | 5.77 | 6.21 | 5.89 |
| O=C(C1CCS(=O)(=O)CC1)N(Cc1ccc(-c2noc(C(F)(F)F)n2)c(F)c1)c1cccc(C(F)(F)F)c1 [Example 489, N-({3-fluoro-4-[5-(trifluoromethyl)-1,2,4-oxadiazol-3-yl]phenyl}methyl)-1,1-dioxo-N-[3-(trifluoromethyl)phenyl]-llambda~6~-thiane-4-carboxamide] | 6.02 | 6.12 | 5.16 |
| Fc1c(-c2noc(C(F)(F)F)n2)ccnc1OCc1nc(C2CC2)no1 [Example 187, 3-Cyclopropyl-5-(((3-fluoro-4-(5-(trifluoromethyl)-1,2,4-oxadiazol-3-yl)pyridin-2-yl)oxy)methyl)-1,2,4-oxadiazole] | 5.82 | 6.66 | 5.82 |
| O=C(NC(Cc1ccc(-c2noc(C(F)(F)F)n2)cn1)c1cccc(C(F)(F)F)c1)C1CCOCC1 (racemic) [Example 483, N-(2-{5-[5-(trifluoromethyl)-1,2,4-oxadiazol-3-yl]pyridin-2-yl}-1-[3-(trifluoromethyl)phenyl]ethyl)oxane-4-carboxamide] | 6.20 | 6.29 | 5.21 |
| Nc1cccnc1COCc1ccc(-c2noc(C(F)(F)F)n2)c(F)c1 [Example 252, 2-[({3-fluoro-4-[5-(trifluoromethyl)-1,2,4-oxadiazol-3-yl]phenyl}methoxy)methyl]pyridin-3-amine] | 5.59 | 6.92 | 5.35 |
| O=C1CNCC(c2ccccc2)N1c1ccc(-c2noc(C(F)(F)F)n2)cc1 (stereo not drawn) [Example 39, 6-phenyl-1-(4-(5-(trifluoromethyl)-1,2,4-oxadiazol-3-yl)phenyl)piperazin-2-one] | 6.26 | 7.60 | 5.80 |
| O=C(NC(Cc1ccc(-c2noc(C(F)(F)F)n2)cn1)c1cccc(C(F)(F)F)c1)c1ncccn1 (racemic) [Example 484, N-(2-{5-[5-(trifluoromethyl)-1,2,4-oxadiazol-3-yl]pyridin-2-yl}-1-[3-(trifluoromethyl)phenyl]ethyl)pyrimidine-2-carboxamide] | 6.22 | 6.14 | 5.60 |
| O=C1CCC(c2ccccc2)N1c1ccc(-c2noc(C(F)(F)F)n2)c(F)c1 (stereo not drawn) [Example 43, 1-(3-fluoro-4-(5-(trifluoromethyl)-1,2,4-oxadiazol-3-yl)phenyl)-5-phenylpyrrolidin-2-one] | 5.72 | 7.13 | 5.44 |
| Cn1nccc1OCc1ccc(-c2noc(C(F)(F)F)n2)c(F)c1 [Example 229, 3-(2-fluoro-4-{[(1-methyl-1H-pyrazol-5-yl)oxy]methyl}phenyl)-5-(trifluoromethyl)-1,2,4-oxadiazole] | 5.43 | 6.85 | 5.32 |
| FC(F)(F)c1nc(-c2ccnc(OCc3nc4ccccc4[nH]3)c2)no1 [Example 200, 2-[({4-[5-(trifluoromethyl)-1,2,4-oxadiazol-3-yl]pyridin-2-yl}oxy)methyl]-1H-benzimidazole] | 6.35 | 6.34 | 6.01 |
| COC(=O)N1CCC(C(=O)N(Cc2ccc(-c3noc(C(F)(F)F)n3)cn2)c2cccc(C(F)(F)F)c2)CC1 [Example 198, methyl 4-{({5-[5-(trifluoromethyl)-1,2,4-oxadiazol-3-yl]pyridin-2-yl}methyl)[3-(trifluoromethyl)phenyl]carbamoyl}piperidine-1-carboxylate] | 6.32 | 6.19 | 5.89 |
| CC(C)NC(=O)OCc1ccc(-c2noc(C(F)(F)F)n2)cn1 [Example 192, (5-(5-(Trifluoromethyl)-1,2,4-oxadiazol-3-yl)pyridin-2-yl)methyl isopropylcarbamate] | 6.18 | 6.19 | 5.74 |
| O=C1NCCc2c(OCc3ccc(-c4noc(C(F)(F)F)n4)c(F)c3)cccc21 [Example 231, 5-({3-fluoro-4-[5-(trifluoromethyl)-1,2,4-oxadiazol-3-yl]phenyl}methoxy)-3,4-dihydroisoquinolin-1(2H)-one] | 5.16 | 6.96 | 4.35 |
| Cn1cccc(OCc2ccc(-c3noc(C(F)(F)F)n3)c(F)c2)c1=O [Example 233, 3-({3-fluoro-4-[5-(trifluoromethyl)-1,2,4-oxadiazol-3-yl]phenyl}methoxy)-1-methylpyridin-2(1H)-one] | 5.80 | 6.77 | 5.66 |
| CC(C)(C)OC(=O)N1C[C@@H](c2cc(F)cc(F)c2)N(c2ccc(-c3noc(C(F)(F)F)n3)cn2)C(=O)C1C1CCOCC1 (stereo partly drawn) [Example 127, tert-butyl (5R)-5-(3,5-difluorophenyl)-3-oxo-2-(tetrahydro-2H-pyran-4-yl)-4-(5-(5-(trifluoromethyl)-1,2,4-oxadiazol-3-yl)pyridin-2-yl)piperazine-1-carboxylate] | 5.14 | 6.44 | < 4.35 |
| CCCC(=O)NC(Cc1ccc(-c2noc(C(F)(F)F)n2)cn1)c1cccc(C(F)(F)F)c1 (racemic) [Example 479, N-(2-{5-[5-(trifluoromethyl)-1,2,4-oxadiazol-3-yl]pyridin-2-yl}-1-[3-(trifluoromethyl)phenyl]ethyl)butanamide] | 6.21 | 6.36 | 4.35 |
| O=C(C1CCS(=O)(=O)CC1)N(Cc1ccc(-c2noc(C(F)(F)F)n2)cc1)c1cccc(C(F)(F)F)c1 [Example 30, N-(4-(5-(Trifluoromethyl)-1,2,4-oxadiazol-3-yl)benzyl)-N-(3-(trifluoromethyl)phenyl)tetrahydro-2H-thiopyran-4-carboxamide 1,1-dioxide] | 5.87 | 5.92 | 5.37 |
| O=C(C1CCOCC1)N(Cc1ccc(-c2noc(C(F)(F)F)n2)cn1)c1cccc(F)c1 [Example 60, N-(3-fluorophenyl)-N-((5-(5-(trifluoromethyl)-1,2,4-oxadiazol-3-yl)pyridin-2-yl)methyl)tetrahydro-2H-pyran-4-carboxamide] | 6.64 | 6.19 | 5.68 |
| Fc1cc(COc2ccc3cnccc3n2)ccc1-c1noc(C(F)(F)F)n1 [Example 234, 2-({3-fluoro-4-[5-(trifluoromethyl)-1,2,4-oxadiazol-3-yl]phenyl}methoxy)-1,6-naphthyridine] | 6.43 | 8.08 | 6.19 |
| Fc1cc(COc2nncc3ccccc23)ccc1-c1noc(C(F)(F)F)n1 [Example 228, 1-({3-fluoro-4-[5-(trifluoromethyl)-1,2,4-oxadiazol-3-yl]phenyl}methoxy)phthalazine] | 5.37 | 6.85 | 5.70 |
| O=C(C1CCS(=O)(=O)CC1)N(Cc1ccc(-c2noc(C(F)(F)F)n2)cn1)c1cccc(F)c1 [Example 55, N-(3-fluorophenyl)-N-((5-(5-(trifluoromethyl)-1,2,4-oxadiazol-3-yl)pyridin-2-yl)methyl)tetrahydro-2H-thiopyran-4-carboxamide 1,1-dioxide] | 6.60 | 5.96 | 5.64 |
| O=C1CCC(c2ccccc2)N1c1cc(F)c(-c2noc(C(F)(F)F)n2)cc1F (stereo not drawn) [Example 41, 1-(2,5-difluoro-4-(5-(trifluoromethyl)-1,2,4-oxadiazol-3-yl)phenyl)-5-phenylpyrrolidin-2-one] | 6.21 | 7.72 | 5.22 |
